According to PubChem BioAssay (NCI):
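Cultured in 96-well plates, cells were exposed to test compound for 48 hours across five concentrations. The concentration for 50% growth inhibition is given as GI50. TGI marks complete inhibition of growth.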

Tested on: DLD-1 colon
Assay: NCI-60 cell line screen, 48 h

Compound	TGI
CC(=O)[C@@]1(O)CC[C@H]2[C@@H]3C[C@H](C)C4=CC(=O)C=C[C@]4(C)[C@@]3(F)[C@@H](O)C[C@@]21C	> 100 µM
O=C1CCCC[C@H]1[C@H]1CCC[C@@H]([C@H]2CCCCC2=O)C1=O	> 100 µM
C/C(CC(=O)NCCc1ccccc1)=N\NC(=O)C[n+]1ccccc1	> 100 µM

Tested on: DMS 114 small cell lung
Assay: NCI-60 cell line screen, 48 h

Compound	TGI
O=c1c2cc(Br)cc(Br)c2nc(CCCl)n1CCO	> 100 µM
CC(=O)[C@@]1(O)CC[C@H]2[C@@H]3C[C@H](C)C4=CC(=O)C=C[C@]4(C)[C@@]3(F)[C@@H](O)C[C@@]21C	> 100 µM
O=C1NC2OC(C(O)CO)C(O)C2O1 (configuration not stated)	> 100 µM
C/C(CC(=O)NCCc1ccccc1)=N\NC(=O)C[n+]1ccccc1	> 100 µM

Tested on: DMS 273 small cell lung
Assay: NCI-60 cell line screen, 48 h

Compound	TGI
CC(=O)[C@@]1(O)CC[C@H]2[C@@H]3C[C@H](C)C4=CC(=O)C=C[C@]4(C)[C@@]3(F)[C@@H](O)C[C@@]21C	> 100 µM
O=C1CCCC[C@H]1[C@H]1CCC[C@@H]([C@H]2CCCCC2=O)C1=O	> 100 µM
O=C1NC2OC(C(O)CO)C(O)C2O1 (configuration not stated)	> 100 µM
C/C(CC(=O)NCCc1ccccc1)=N\NC(=O)C[n+]1ccccc1	> 100 µM

Tested on: DU-145 prostate
Assay: NCI-60 cell line screen, 48 h

Compound	TGI
CC(=O)[C@@]1(O)CC[C@H]2[C@@H]3C[C@H](C)C4=CC(=O)C=C[C@]4(C)[C@@]3(F)[C@@H](O)C[C@@]21C	> 100 µM
Nc1ccn(C2CCC(CO)O2)c(=O)n1 (configuration not stated)	> 1000 µM

Tested on: EKVX NSCLC
Assay: NCI-60 cell line screen, 48 h

Compound	TGI	GI50
O=c1c2cc(Br)cc(Br)c2nc(CCCl)n1CCO	> 100 µM	
CC(=O)[C@@]1(O)CC[C@H]2[C@@H]3C[C@H](C)C4=CC(=O)C=C[C@]4(C)[C@@]3(F)[C@@H](O)C[C@@]21C	> 100 µM	
Nc1ccn(C2CCC(CO)O2)c(=O)n1 (configuration not stated)	> 1000 µM	> 1000 µM
O=C1CCCC[C@H]1[C@H]1CCC[C@@H]([C@H]2CCCCC2=O)C1=O	> 100 µM	
O=C1NC2OC(C(O)CO)C(O)C2O1 (configuration not stated)	> 100 µM	
C/C(CC(=O)NCCc1ccccc1)=N\NC(=O)C[n+]1ccccc1	> 100 µM	

Tested on: HCC-2998 colon
Assay: NCI-60 cell line screen, 48 h

Compound	TGI	GI50
O=c1c2cc(Br)cc(Br)c2nc(CCCl)n1CCO	> 100 µM	
CC(=O)[C@@]1(O)CC[C@H]2[C@@H]3C[C@H](C)C4=CC(=O)C=C[C@]4(C)[C@@]3(F)[C@@H](O)C[C@@]21C	> 100 µM	
Nc1ccn(C2CCC(CO)O2)c(=O)n1 (configuration not stated)	> 1000 µM	> 1000 µM
O=C1CCCC[C@H]1[C@H]1CCC[C@@H]([C@H]2CCCCC2=O)C1=O	> 100 µM	
O=C1NC2OC(C(O)CO)C(O)C2O1 (configuration not stated)	> 100 µM	
C/C(CC(=O)NCCc1ccccc1)=N\NC(=O)C[n+]1ccccc1	> 100 µM	

Tested on: HCT-116 colon
Assay: NCI-60 cell line screen, 48 h

Compound	TGI	GI50
O=c1c2cc(Br)cc(Br)c2nc(CCCl)n1CCO	> 100 µM	
CC(=O)[C@@]1(O)CC[C@H]2[C@@H]3C[C@H](C)C4=CC(=O)C=C[C@]4(C)[C@@]3(F)[C@@H](O)C[C@@]21C	> 100 µM	
Nc1ccn(C2CCC(CO)O2)c(=O)n1 (configuration not stated)	> 1000 µM	> 1000 µM
O=C1CCCC[C@H]1[C@H]1CCC[C@@H]([C@H]2CCCCC2=O)C1=O	> 100 µM	
O=C1NC2OC(C(O)CO)C(O)C2O1 (configuration not stated)	> 100 µM	
C/C(CC(=O)NCCc1ccccc1)=N\NC(=O)C[n+]1ccccc1	> 100 µM	

Tested on: HCT-15 colon
Assay: NCI-60 cell line screen, 48 h

Compound	TGI	GI50
CC(=O)[C@@]1(O)CC[C@H]2[C@@H]3C[C@H](C)C4=CC(=O)C=C[C@]4(C)[C@@]3(F)[C@@H](O)C[C@@]21C	> 100 µM	
Nc1ccn(C2CCC(CO)O2)c(=O)n1 (configuration not stated)	> 1000 µM	> 1000 µM
O=C1CCCC[C@H]1[C@H]1CCC[C@@H]([C@H]2CCCCC2=O)C1=O	> 100 µM	
O=C1NC2OC(C(O)CO)C(O)C2O1 (configuration not stated)	> 100 µM	
C/C(CC(=O)NCCc1ccccc1)=N\NC(=O)C[n+]1ccccc1	> 100 µM	

Tested on: HL-60(TB) leukemia
Assay: NCI-60 cell line screen, 48 h

Compound	TGI
O=c1c2cc(Br)cc(Br)c2nc(CCCl)n1CCO	> 100 µM
CC(=O)[C@@]1(O)CC[C@H]2[C@@H]3C[C@H](C)C4=CC(=O)C=C[C@]4(C)[C@@]3(F)[C@@H](O)C[C@@]21C	> 100 µM
Nc1ccn(C2CCC(CO)O2)c(=O)n1 (configuration not stated)	> 1000 µM
O=C1CCCC[C@H]1[C@H]1CCC[C@@H]([C@H]2CCCCC2=O)C1=O	> 100 µM
O=C1NC2OC(C(O)CO)C(O)C2O1 (configuration not stated)	> 100 µM
C/C(CC(=O)NCCc1ccccc1)=N\NC(=O)C[n+]1ccccc1	> 100 µM

Tested on: HOP-18 NSCLC
Assay: NCI-60 cell line screen, 48 h

Compound	TGI
O=C1CCCC[C@H]1[C@H]1CCC[C@@H]([C@H]2CCCCC2=O)C1=O	> 100 µM
